# pIC50: −log10 of the molar value.
# Legend:
# STAT5 = test: Epo induced STAT5 phosphorylation in HEL cells (Western immunoblotting); format: cell-based, human; conditions: serum deprived HEL cells; 5 μM for 0.5-3 h or 0.5-10 μM for 3 h; Epo 10 units/ml 5 min
# Method: FIG. 1. • A) Overnight serum deprived HEL cells were stimulated with Epo (10 units/ml) for 5, 10, 20, 30, 45 and 60 min. JAK2, pYJAK2, STAT5 and pYSTAT5 were detected using Western immunoblotting as described in methods. B) Overnight serum deprived HEL cells were pre-incubated with compound 4 (C4) (5 μM) for 0.5, 1, 2, and 3 h, and subsequently stimulated with 10 units/ml Epo for 5 min. JAK2, pYJAK2, STAT5 and pYSTAT5 were detected using Western immunoblotting as described in methods. C) Overnight serum deprived HEL cells were pre-incubated with C4 at increasing concentrations (0.5-10 μM) for 3 h, and subsequently stimulated with 10 units/ml Epo for 5 min. JAK2, pJAK2, STAT5 and pSTAT5 were detected using Western immunoblotting as described in methods. […]
# For total protein extraction, cells were scraped with RIPA 1× lysis buffer (25 mM Tris-HCl pH 7.6, 150 mM NaCl, 1% NP-40, 1% sodium deoxycholate, 0.1% SDS, no. 89900, Thermo Scientific, Rockford, Ill., USA) supplemented with 1× protease and 1× phosphatase inhibitor cocktails (100× Halt™ Protease Inhibitor Cocktail, no. 87786 and 100× Halt™ Phosphatase Inhibitor Cocktail, no. 78420, both from Thermo Scientific, Rockford, Ill., USA). An aliquot of each extract was preserved for protein quantification by bicinchoninic acid assay (Pierce® BCA Protein Assay Kit, no. 23225, Thermo Scientific, Rockford, Ill., USA). […]
# K562 cells = test: K562-based MTT cell viability assay; design: species or system human; conditions: Homo sapiens, 48 h, read-out: Activity (IC50, reduction of cell viability)
# Method: (§1) Cell viability was assayed by measuring the mitochondrial reduction of the tetrazolium salt 3-(4,5-methyltiazol-2yl)-2,5diphenyl-tetrazolium bromide] (MTT) (Applichen; A2231,0010) (Mosmann T. J Immunol Methods. 1983 16; 65(1-2):55-63; Chuan Y-C et al 2010. Oncogene. 29 (10), 1531-1542. Cells were seeded in 96-well plates in medium supplemented with 10% FBS (Lonza Cat. No: 14-502F), 2 mM L-Glut (Lonza Cat. No: BE17-605E) and 100 U/ml PEST (Lonza Cat. No: DE17-605E) at a cell density of 5000-20000 cells/well. Cells were seeded at a density according to their exponential growth phase. Vehicle (0.05% DMSO) or drug were added to culture medium at the indicated concentrations (10 to 0.01 microM) during 48 h. Then, MTT (0.3 mg/ml) was added to cells following by incubation for 2-4 h at 37° C. in the dark. The medium was then discarded and the formazan precipitate was solubilized by addition of 20% SDS (Sigma; L-5750) in 0.02N HCl (Panreac; 131020.1611) for 12-16 h. The optical density was measured at 595 nm with the iMark Microplate Reader (BioRad, USA). Data was expressed as percent growth above the level in controls and the results in figures were plotted as means±SEM of each test point from 3 replicates.
# (§2) Statistical analysis. The concentration of drug that provokes 50% reduction of cell viability (IC50) was determined by using non-linear regression analysis and data were fitted to a log concentration vs normalized response curve in GraphPad software v5 (San Diego, Calif.).
# HEL cells = test: HEL-based MTT cell viability assay; design: species or system human; conditions: Homo sapiens, 48 h, read-out: Activity (IC50, reduction of cell viability)
# Method: as §1, §2
smiles,measurement,setting,value
"N#Cc1ccc(C2C3=C(CCCC3=O)OC3=C2C(=O)c2ccccc2C3=O)cc1 (stereo not drawn) [Compound 4, 4-(1,6,11-trioxo-2,3,4,6,11,12-hexahydro-1H-benzo[b]xanthen-12-yl)benzonitrile]",Epo-induced phosphorylation of STAT5,STAT5,"inhibits, in a time/dose dependent manner"
same,pIC50,K562 cells,> 6.00
same,pIC50,HEL cells,> 5.52
